Data published in patent US20260042743A1, “SUBSTITUTED BENZIMIDAZOLES FOR TREATING VIRAL DISEASES” (COUNCIL OF SCIENTIFIC AND INDUSTRIAL RESEARCH, priority 2022, published 2026).

Test system: SARS-CoV-2
Test: cell-based anti-viral assay using Vero E6 cell line, viral RNA by qRT-PCR
Details: Vero E6 cells, 48 h; for ΔCt (1 μM) / inhibition at 1 µM: 1 μM compound; for ΔCt (1 μM) / ΔCt (5 μM): increase in Ct vs no-drug control; for ΔCt (5 μM) / inhibition at 5 µM: 5 μM compound; for inhibition at 1 µM / inhibition at 5 µM: Severe acute respiratory syndrome coronavirus 2, Vero C1008, calculated from ΔCt; for inhibition at 1 µM: read-out: % SARS-CoV-2 Inactivation (1 μM); for inhibition at 5 µM: read-out: % SARS-CoV-2 Inactivation (5 μM)

Compound: FC(F)(F)c1ccc(Nc2nc3c(C(F)(F)F)cc(C(F)(F)F)cc3[nH]2)cc1 [Example 27, 4,6-bis(trifluoromethyl)-N-(4-(trifluoromethyl)phenyl)-1H-benzo[d]imidazol-2-amine]
- ΔCt (1 μM): 1.2
- ΔCt (5 μM): 8
- inhibition at 1 µM: < 3%
- inhibition at 5 µM: > 99%

Compound: Fc1ccc(Nc2nc3c(C(F)(F)F)cc(C(F)(F)F)cc3[nH]2)cc1 [Example 25, N-(4-fluorophenyl)-4,6-bis(trifluoromethyl)-1H-benzo[d]imidazol-2-amine]
- ΔCt (1 μM): 2
- ΔCt (5 μM): 3.6
- inhibition at 1 µM: < 3%
- inhibition at 5 µM: 90%

Compound: FC(F)(F)Oc1ccc2nc(Nc3cccc(C(F)(F)F)c3)[nH]c2c1 [Example 30, 6-(trifluoromethoxy)-N-(3-(trifluoromethyl)phenyl)-1H-benzo[d]imidazol-2-amine]
- ΔCt (1 μM): 1.1
- ΔCt (5 μM): 11.1
- inhibition at 1 µM: < 3%
- inhibition at 5 µM: 99.9%

Compound: O=S1(=O)CCC(Nc2nc3c(C(F)(F)F)cc(C(F)(F)F)cc3[nH]2)C1 (stereo not shown) [Example 20, 3-((4,6-bis(trifluoromethyl)-1H-benzo[d]imidazol-2-yl)amino)tetrahydrothiophene 1,1-dioxide]
- ΔCt (1 μM): 1.7
- ΔCt (5 μM): 3.7
- inhibition at 1 µM: < 3%
- inhibition at 5 µM: > 90%

Compound: FC(F)(F)c1cccc(Nc2nc3c(C(F)(F)F)cc(C(F)(F)F)cc3[nH]2)c1 [Example 14, 4,6-bis(trifluoromethyl)-N-(3-(trifluoromethyl)phenyl)-1H-benzo[d]imidazol-2-amine]
- ΔCt (1 μM): 7.4
- ΔCt (5 μM): 16
- inhibition at 1 µM: 99%
- inhibition at 5 µM: 100%

Compound: FC(F)(F)c1cc(Nc2nc3c(C(F)(F)F)cc(C(F)(F)F)cc3[nH]2)cc(C(F)(F)F)c1 [Example 1, N-(3,5-bis(trifluoromethyl)phenyl)-4,6-bis(trifluoromethyl)-1H-benzo[d]imidazol-2-amine]
- ΔCt (1 μM): 5.7
- ΔCt (5 μM): 12
- inhibition at 1 µM: > 95%
- inhibition at 5 µM: > 99.9%

Compound: CC(C)c1ccccc1Nc1nc2c(C(F)(F)F)cc(C(F)(F)F)cc2[nH]1 [Example 18, N-(2-isopropylphenyl)-4,6-bis(trifluoromethyl)-1H-benzo[d]imidazol-2-amine]
- ΔCt (1 μM): 1.4
- ΔCt (5 μM): 1.4
- inhibition at 1 µM: < 3%
- inhibition at 5 µM: < 3%

Compound: Fc1ccccc1Nc1nc2c(C(F)(F)F)cc(C(F)(F)F)cc2[nH]1 [Example 23, N-(2-fluorophenyl)-4,6-bis(trifluoromethyl)-1H-benzo[d]imidazol-2-amine]
- ΔCt (1 μM): −0.3
- ΔCt (5 μM): 5.2
- inhibition at 1 µM: < 3%
- inhibition at 5 µM: > 95%

Compound: Fc1cccc(Nc2nc3c(C(F)(F)F)cc(C(F)(F)F)cc3[nH]2)c1 [Example 24, N-(3-fluorophenyl)-4,6-bis(trifluoromethyl)-1H-benzo[d]imidazol-2-amine]
- ΔCt (1 μM): 0.7
- ΔCt (5 μM): 4.3
- inhibition at 1 µM: < 3%
- inhibition at 5 µM: > 90%

Compound: Fc1cc2nc(NCc3ccccc3)[nH]c2cc1F [Example 13, N-benzyl-5,6-difluoro-1H-benzo[d]imidazol-2-amine]
- ΔCt (1 μM): 1.3
- ΔCt (5 μM): 1
- inhibition at 1 µM: < 3%
- inhibition at 5 µM: < 3%

Compound: FC(F)(F)c1cc(C(F)(F)F)c2nc(Nc3cccnc3)[nH]c2c1 [Example 5, N-(pyridin-3-yl)-4,6-bis(trifluoromethyl)-1H-benzo[d]imidazol-2-amine]
- ΔCt (1 μM): 1
- ΔCt (5 μM): 1.2
- inhibition at 1 µM: < 3%
- inhibition at 5 µM: < 3%

Compound: FC(F)(F)c1ccc(Nc2nc3c(C(F)(F)F)cccc3[nH]2)cc1 [Example 36, 4-(trifluoromethyl)-N-(4-(trifluoromethyl)phenyl)-1H-benzo[d]imidazol-2-amine]
- ΔCt (1 μM): 12
- ΔCt (5 μM): 12
- inhibition at 1 µM: > 99.9%
- inhibition at 5 µM: > 99.9%

Compound: FC(F)(F)c1cc(C(F)(F)F)c2nc(Nc3ccccc3C(F)(F)F)[nH]c2c1 [Example 28, 4,6-bis(trifluoromethyl)-N-(2-(trifluoromethyl)phenyl)-1H-benzo[d]imidazol-2-amine]
- ΔCt (1 μM): −2
- ΔCt (5 μM): 2
- inhibition at 1 µM: < 3%
- inhibition at 5 µM: < 3%

Compound: COc1ccc(Nc2nc3c(C(F)(F)F)cc(C(F)(F)F)cc3[nH]2)cc1Br [Example 4, N-(3-bromo-4-methoxyphenyl)-4,6-bis(trifluoromethyl)-1H-benzo[d]imidazol-2-amine]
- ΔCt (1 μM): 2.7
- ΔCt (5 μM): 6
- inhibition at 1 µM: < 3%
- inhibition at 5 µM: > 95%

Compound: CN(c1ccc(C(F)(F)F)cc1)c1nc2cccc(C(F)(F)F)c2[nH]1 [Example 43, N-methyl-7-(trifluoromethyl)-N-(4-(trifluoromethyl)phenyl)-1H-benzo[d]imidazol-2-amine]
- ΔCt (1 μM): 1.8
- ΔCt (5 μM): 3.6
- inhibition at 1 µM: < 3%
- inhibition at 5 µM: > 90%

Compound: FC(F)(F)c1cc(C(F)(F)F)c2nc(Nc3ccccc3)[nH]c2c1 [Example 3, N-phenyl-4,6-bis(trifluoromethyl)-1H-benzo[d]imidazol-2-amine]
- ΔCt (1 μM): 1.8
- ΔCt (5 μM): 3.3
- inhibition at 1 µM: < 3%
- inhibition at 5 µM: 90%

Compound: FC(F)(F)c1cc(C(F)(F)F)c2nc(Nc3ccc(Cl)cc3)[nH]c2c1 [Example 2, N-(4-chlorophenyl)-4,6-bis(trifluoromethyl)-1H-benzo[d]imidazol-2-amine]
- ΔCt (1 μM): 4.4
- ΔCt (5 μM): 6
- inhibition at 1 µM: > 90%
- inhibition at 5 µM: > 95%

Compound: FC(F)(F)c1cc(Nc2nc3ccc(C(F)(F)F)cc3[nH]2)cc(C(F)(F)F)c1 [Example 31, N-(3,5-bis(trifluoromethyl)phenyl)-6-(trifluoromethyl)-1H-benzo[d]imidazol-2-amine]
- ΔCt (1 μM): 5.3
- ΔCt (5 μM): 9
- inhibition at 1 µM: > 95%
- inhibition at 5 µM: > 99%

Compound: FC(F)(F)c1cc(C(F)(F)F)c2nc(Nc3ccc4ccccc4c3)[nH]c2c1 [Example 17, N-(naphthalen-2-yl)-5,7-bis(trifluoromethyl)-1H-benzo[d]imidazol-2-amine]
- ΔCt (1 μM): 3
- ΔCt (5 μM): 1.5
- inhibition at 1 µM: 90%
- inhibition at 5 µM: < 3%

Compound: FC(F)(F)Oc1cccc(Nc2nc3c(C(F)(F)F)cc(C(F)(F)F)cc3[nH]2)c1 [Example 22, N-(3-(trifluoromethoxy)phenyl)-4,6-bis(trifluoromethyl)-1H-benzo[d]imidazol-2-amine]
- ΔCt (1 μM): 3.3
- ΔCt (5 μM): 7.4
- inhibition at 1 µM: 90%
- inhibition at 5 µM: 99%

Compound: CN(c1cc(C(F)(F)F)cc(C(F)(F)F)c1)c1nc2c(C(F)(F)F)cc(C(F)(F)F)cc2[nH]1 [Example 41, N-(3,5-bis(trifluoromethyl)phenyl)-N-methyl-4,6-bis(trifluoromethyl)-1H-benzo[d]imidazol-2-amine]
- ΔCt (1 μM): 3.8
- ΔCt (5 μM): 13.4
- inhibition at 1 µM: > 90%
- inhibition at 5 µM: > 99.9%

Compound: FC(F)(F)Oc1ccc2nc(Nc3cc(C(F)(F)F)cc(C(F)(F)F)c3)[nH]c2c1 [Example 29, N-(3,5-bis(trifluoromethyl)phenyl)-6-(trifluoromethoxy)-1H-benzo[d]imidazol-2-amine]
- ΔCt (1 μM): 4.7
- ΔCt (5 μM): 11.5
- inhibition at 1 µM: > 95%
- inhibition at 5 µM: 99.9%
